Legend:
[1] = target: Muscarinic acetylcholine receptor M1/M2/M3/M4/M5; test: Binding affinity towards muscarinic receptor using [3H]quinuclidinyl benzilate (QNB) to label antagonist sites in membrane preparations from rat neocortex
[2] = target: Muscarinic acetylcholine receptor M1/M2/M3/M4/M5; test: Binding affinity towards muscarinic receptor using [3H]cis-methyldioxolane (CMD) to label agonist sites in membrane preparations from rat neocortex

- IC50 [1]: 6.4 µM
- IC50 [2]: 0.028 µM
Structure (SMILES): O=[N+]([O-])c1cccc(C#CCO[N-][C+]2CN3CCC2C3)c1 (configuration not stated) [1-Aza-bicyclo[2.2.1]heptan-3-one O-[3-(3-nitro-phenyl)-prop-2-ynyl]-oxime]

Source: BindingDB's records for doi:10.7270/Q2736T2X (n/a, 1995)
